Test results taken from patent publication US8361765B2, “Enzymic method for the enantioselective reduction of keto compounds” (IEP GmbH, priority 2001, dated 2013).

Key:
[1] = test system: L. minor alcohol dehydrogenase; test: Enzyme stability in organic solvents; type: biochemical, Lactobacillus minor; conditions: for Enzyme activity relative to starting value, t = 2 h / Enzyme activity relative to starting value, t = 8 h / Enzyme activity relative to starting value, t = 24 h / Enzyme activity relative to starting value, t = 48 h: room temperature; for action of the solvent on the alcohol dehydrogenase (in words): Table 7
Description: The stability of the enzyme when contacted with organic solvents was studied by diluting L. minor alcohol dehydrogenase 1:100 in the solvent mixtures listed, followed by incubation at room temperature (for organic solvents not miscible with water, the dilution refers to the aqueous phase). Continuous mixing of both phases was ensured (shaker, 200 rpm). 10 μl of the enzyme solution were then used in the standard assay mixture. Here too, the starting value was set to 100% after dilution in the buffer (triethanolamine buffer 100 mM, pH=7.0, 1 mM MgCl2), with all other values being related to this value.

[2] = test system: alcohol dehydrogenase from Lactobacillus minor; test: Spectrum of substrates; type: biochemical; conditions: 10 mM keto compound as substrate, 0.19 mM NADPH, pH 7.0; activity with ethyl 4-chloro-3-oxo-butanoate set to 100%
Description: Furthermore, substrates other than ethyl 4-chloro-3-oxo-butanoate were also used in the enzymic assay mixture. For this purpose, the following assay mixture was used: • 970 μl of triethanolamine buffer (100 mM, pH=7.0, 1 mM MgCl2 containing 10 mM keto compound) • 20 μl of NADPH (0.19 mM in assay mixture) • 10 μl of enzyme (1:100)
The activity determined with ethyl 4-chloro-3-oxo-butanoate was set to 100% and the enzyme activities of the other substrates were related to this value.

[3] = octanol/water; cited from earlier work
[4] = 10% water-miscible solvent in buffer
[5] = 20% water-miscible solvent in buffer
[6] = 20% solvent not miscible with water, two phases shaken 200 rpm

| SMILES | action of the solvent on the alcohol dehydrogenase (in words) [1] | Enzyme activity relative to starting value, t = 2 h [1, 6] | Enzyme activity relative to starting value, t = 8 h [1, 6] | Enzyme activity relative to starting value, t = 24 h [1, 6] | Enzyme activity relative to starting value, t = 48 h [1, 6] | logP [3] | also measured |
| --- | --- | --- | --- | --- | --- | --- | --- |
| C[S+](C)[O-] [DMSO, dimethyl sulfoxide] | activating and, respectively, stabilizing action | – | – | – | – | – | Enzyme activity relative to starting value, t = 2 h [1, 4]: 73%; Enzyme activity relative to starting value, t = 8 h [1, 4]: 54%; Enzyme activity relative to starting value, t = 24 h [1, 4]: 60%; Enzyme activity relative to starting value, t = 48 h [1, 4]: 40%; Enzyme activity relative to starting value, t = 2 h [1, 5]: 73%; Enzyme activity relative to starting value, t = 8 h [1, 5]: 54%; Enzyme activity relative to starting value, t = 24 h [1, 5]: 57%; Enzyme activity relative to starting value, t = 48 h [1, 5]: 40% |
| CCCCCCC(C)=O [2-Octanone] | – | – | – | – | – | – | Activity in % (n = 2) [2]: 90.8 ± 1.2% |
| CCCCCCCC [octane] | do not exhibit this stabilizing action | 87% | 47% | 2% | 1% | – | – |
| OC[C@@H](O)[C@@H](O)[C@H](O)[C@@H](O)CO [sorbitol] | activating and, respectively, stabilizing action | – | – | – | – | – | Enzyme activity relative to starting value, t = 2 h ([1]; 1M in buffer): 93%; Enzyme activity relative to starting value, t = 8 h ([1]; 1M in buffer): 74%; Enzyme activity relative to starting value, t = 24 h ([1]; 1M in buffer): 60%; Enzyme activity relative to starting value, t = 48 h ([1]; 1M in buffer): 6% |
| CC(C)OC(C)C [diisopropyl ether] | – | 100% | 57% | 41% | 29% | 1.55 | – |
| CCCCCCC [heptane] | do not exhibit this stabilizing action | 51% | 49% | 7% | 6% | 4 | – |
| COC(C)(C)C [tert-butyl methyl ether] | – | 67% | 51% | 38% | 24% | 1.21 | – |
| CC(C)O [isopropanol] | inactivating action | – | – | – | – | – | – |
| CCCCC [pentane] | do not exhibit this stabilizing action | 74% | 55% | 7% | 6% | 3 | – |
| CCOCC [diethyl ether] | – | 53% | 42% | 37% | 23% | 0.85 | – |
| CCOC(=O)C(=O)CCc1ccccc1 [Ethyl 2-oxo-4-phenylbutyrate] | – | – | – | – | – | – | Activity in % (n = 2) [2]: 62.7 ± 4.8% |
| CCCCCC [hexane] | do not exhibit this stabilizing action | 80% | 39% | 2% | 5% | – | – |
| OCC(O)CO [glycerol] | activating and, respectively, stabilizing action | – | – | – | – | −3 | Enzyme activity relative to starting value, t = 2 h [1, 4]: 120%; Enzyme activity relative to starting value, t = 8 h [1, 4]: 64%; Enzyme activity relative to starting value, t = 24 h [1, 4]: 62%; Enzyme activity relative to starting value, t = 48 h [1, 4]: 28%; Enzyme activity relative to starting value, t = 2 h [1, 5]: 120%; Enzyme activity relative to starting value, t = 8 h [1, 5]: 100%; Enzyme activity relative to starting value, t = 24 h [1, 5]: 100%; Enzyme activity relative to starting value, t = 48 h [1, 5]: 104% |
| COC(=O)CC(C)=O [Methyl acetoacetate] | – | – | – | – | – | – | Activity in % (n = 2) [2]: 120 ± 7.7% |
| CCOC(C)=O [ethyl acetate] | – | 87% | 50% | 10% | 8% | – | – |
| CCOC(=O)CC(=O)CCl [Ethyl 4-chloro-3-oxo-butanoate] | – | – | – | – | – | – | Activity in % (n = 2) [2]: 100% |
| CCOC(=O)C(C)=O [Ethyl pyruvate] | – | – | – | – | – | – | Activity in % (n = 2) [2]: 192.3 ± 11.5% |
